Several values for one entry are separate records, joined by “and”; a condition that tells them apart may be missing. Identical values can stand only once.
System: 324938-238-R-J1-PDC complex spheroids viability
Test: Anticancer human tumor 324938-238-R-J1-PDC patient-derived bladder carcinoma cell line growth inhibition [CLK]
Conditions: for viability, T/C: stronger effect = lower value
Summary of the method: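 Patient-derived tumor cells grown as complex spheroids with HUVEC endothelial cells and mesenchymal stem cells, treated with drug combinations. Concentrations descend in half-log steps from near clinical Cmax, or from 10 microM if Cmax unknown.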

[1] = curve of first compound, second compound 0.0316 µM
[2] = curve of first compound, second compound 0.1 µM
[3] = curve of first compound, second compound 0.316 µM
[4] = curve of first compound, second compound 1 µM
[5] = curve of first compound, second compound 3.16 µM
[6] = curve of first compound, second compound 10 µM
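Note: viability read after seven days of drug exposure.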
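Throughout, for viability, T/C: 100% = DMSO vehicle control wells.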

C=C(F)C(=O)N1CCN(c2nc(OCC3CCCN3C)nc3c2CCN(c2cccc4cccc(Cl)c24)C3)CC1CC#N (stereo unspecified) + CN1CCN(c2cc(C(=O)Nc3cc4cc(-c5cnn(C)c5)ccc4cn3)ccn2)CC1
IC50 [1]: 3120 nM | IC50 [2]: 1560 nM | IC50 [3]: < 31.6 nM | IC50 [4]: < 31.6 nM | IC50 [5]: < 31.6 nM | IC50 [6]: < 31.6 nM | viability, T/C (second compound 0.0316 µM, first compound 0.0316 µM): 75.2% | viability, T/C (second compound 0.0316 µM, first compound 0.1 µM): 88.7% | viability, T/C (second compound 0.0316 µM, first compound 0.316 µM): 81.8% | viability, T/C (second compound 0.0316 µM, first compound 1 µM): 78.8% | viability, T/C (second compound 0.0316 µM, first compound 3.16 µM): 49.6% | viability, T/C (second compound 0.0316 µM, first compound 10 µM): 2.48% | viability, T/C (second compound 0.1 µM, first compound 0.0316 µM): 60.9% | viability, T/C (second compound 0.1 µM, first compound 0.1 µM): 64% | viability, T/C (second compound 0.1 µM, first compound 0.316 µM): 57.3% | viability, T/C (second compound 0.1 µM, first compound 1 µM): 53.3% | viability, T/C (second compound 0.1 µM, first compound 3.16 µM): 43.3% | viability, T/C (second compound 0.1 µM, first compound 10 µM): 2.19% | viability, T/C (second compound 0.316 µM, first compound 0.0316 µM): 25.4% | viability, T/C (second compound 0.316 µM, first compound 0.1 µM): 26.9% | viability, T/C (second compound 0.316 µM, first compound 0.316 µM): 22.3% | viability, T/C (second compound 0.316 µM, first compound 1 µM): 24.5% | viability, T/C (second compound 0.316 µM, first compound 3.16 µM): 19.6% | viability, T/C (second compound 0.316 µM, first compound 10 µM): 0.24% | viability, T/C (second compound 1 µM, first compound 0.0316 µM): 2.43% | viability, T/C (second compound 1 µM, first compound 0.1 µM): 1.75% | viability, T/C (second compound 1 µM, first compound 0.316 µM): 2.24% | viability, T/C (second compound 1 µM, first compound 1 µM): 1.87% | viability, T/C (second compound 1 µM, first compound 3.16 µM): 0.88% | viability, T/C (second compound 1 µM, first compound 10 µM): 0.23% | viability, T/C (second compound 3.16 µM, first compound 0.0316 µM): 0.21% | viability, T/C (second compound 3.16 µM, first compound 0.1 µM): 0.19% | viability, T/C (second compound 3.16 µM, first compound 0.316 µM): 0.24% | viability, T/C (second compound 3.16 µM, first compound 1 µM): 0.17% | viability, T/C (second compound 3.16 µM, first compound 3.16 µM): 0.33% | viability, T/C (second compound 3.16 µM, first compound 10 µM): 0.12% | viability, T/C (second compound 10 µM, first compound 0.0316 µM): 0.34% | viability, T/C (second compound 10 µM, first compound 0.1 µM): 0.23% | viability, T/C (second compound 10 µM, first compound 0.316 µM): 0.23% | viability, T/C (second compound 10 µM, first compound 1 µM): 0.35% | viability, T/C (second compound 10 µM, first compound 3.16 µM): 0.2% | viability, T/C (second compound 10 µM, first compound 10 µM): 0.2%

NC(=O)C(=Cn1cnc(-c2cc(C(F)(F)F)cc(C(F)(F)F)c2)n1)c1cncnc1
viability, T/C (compound 0.00949 µM): 70.3% and 65.1% | viability, T/C (compound 0.03 µM): 56.4% and 61.5% | viability, T/C (compound 0.0949 µM): 37.4% and 29.3% | viability, T/C (compound 0.3 µM): 12.4% and 14% | viability, T/C (compound 0.949 µM): 5.43% and 5.85% | viability, T/C (compound 3 µM): 3.14% and 2.78% | IC50 (curve of compound): 45.5 nM and 43.6 nM

NC(=O)C(=Cn1cnc(-c2cc(C(F)(F)F)cc(C(F)(F)F)c2)n1)c1cncnc1 + CNC(=O)c1ccc(Nc2nc(OC3CCCC3)c3c(-c4ccc5nc(C)oc5c4)c[nH]c3n2)c(OC)c1
IC50 [1]: 60.8 nM | IC50 [2]: < 9.49 nM | IC50 [3]: < 9.49 nM | IC50 [4]: < 9.49 nM | IC50 [5]: < 9.49 nM | IC50 [6]: < 9.49 nM | viability, T/C (second compound 0.0316 µM, first compound 0.00949 µM): 67.1% | viability, T/C (second compound 0.0316 µM, first compound 0.03 µM): 74.3% | viability, T/C (second compound 0.0316 µM, first compound 0.0949 µM): 36.9% | viability, T/C (second compound 0.0316 µM, first compound 0.3 µM): 14.3% | viability, T/C (second compound 0.0316 µM, first compound 0.949 µM): 8.38% | viability, T/C (second compound 0.0316 µM, first compound 3 µM): 3.32% | viability, T/C (second compound 0.1 µM, first compound 0.00949 µM): 21.3% | viability, T/C (second compound 0.1 µM, first compound 0.03 µM): 24.6% | viability, T/C (second compound 0.1 µM, first compound 0.0949 µM): 16.9% | viability, T/C (second compound 0.1 µM, first compound 0.3 µM): 12.7% | viability, T/C (second compound 0.1 µM, first compound 0.949 µM): 8.37% | viability, T/C (second compound 0.1 µM, first compound 3 µM): 3.77% | viability, T/C (second compound 0.316 µM, first compound 0.00949 µM): 15.7% | viability, T/C (second compound 0.316 µM, first compound 0.03 µM): 15.5% | viability, T/C (second compound 0.316 µM, first compound 0.0949 µM): 13.7% | viability, T/C (second compound 0.316 µM, first compound 0.3 µM): 7.83% | viability, T/C (second compound 0.316 µM, first compound 0.949 µM): 3.16% | viability, T/C (second compound 0.316 µM, first compound 3 µM): 2.69% | viability, T/C (second compound 1 µM, first compound 0.00949 µM): 12.9% | viability, T/C (second compound 1 µM, first compound 0.03 µM): 12.8% | viability, T/C (second compound 1 µM, first compound 0.0949 µM): 9.03% | viability, T/C (second compound 1 µM, first compound 0.3 µM): 5.74% | viability, T/C (second compound 1 µM, first compound 0.949 µM): 3.19% | viability, T/C (second compound 1 µM, first compound 3 µM): 1% | viability, T/C (second compound 3.16 µM, first compound 0.00949 µM): 16.2% | viability, T/C (second compound 3.16 µM, first compound 0.03 µM): 14.1% | viability, T/C (second compound 3.16 µM, first compound 0.0949 µM): 8.67% | viability, T/C (second compound 3.16 µM, first compound 0.3 µM): 4.86% | viability, T/C (second compound 3.16 µM, first compound 0.949 µM): 2.59% | viability, T/C (second compound 3.16 µM, first compound 3 µM): 1.1% | viability, T/C (second compound 10 µM, first compound 0.00949 µM): 14.4% | viability, T/C (second compound 10 µM, first compound 0.03 µM): 13% | viability, T/C (second compound 10 µM, first compound 0.0949 µM): 9.72% | viability, T/C (second compound 10 µM, first compound 0.3 µM): 5.02% | viability, T/C (second compound 10 µM, first compound 0.949 µM): 2.24% | viability, T/C (second compound 10 µM, first compound 3 µM): 0.98%

— PubChem BioAssay AID2060621 (Molecular Pharmacology Branch, DTP, NCI, 2025)
